Source: paper PMC9823088, “The oral selective estrogen receptor degrader GDC-0810 (ARN-810) in postmenopausal women with hormone receptor-positive HER2-negative (HR + /HER2 −) advanced/metastatic breast cancer” (Breast Cancer Research and Treatment, 2022)

Assay: Safety: adverse events (NCI-CTCAE v4.0), DLT, MTD, RP2D
Assay type: in vivo
Protocol: AEs were assessed using the National Cancer Institute-Common Terminology Criteria for Adverse Events (NCI-CTCAE v4.0). […] The protocol-defined GDC-0810-specific AEs of special interest (AESI) which were non-serious adverse events that required expedited reporting to the sponsor, included DLTs occurring during the DLT assessment window, grade ≥ 2 vomiting/diarrhea, grade ≥ 3 nausea, grade ≥ 2 thromboembolic events, grade ≥ 2 vaginal or uterine hemorrhage, and grade ≥ 3 elevation of ALT or AST.
Analyses of safety, pharmacokinetics, anti-tumor activity, and data from the FES-PET imaging correlative studies were planned. Confirmatory inferential analyses and imputation for missing data were not planned due to the exploratory nature of this study. Descriptive statistics were used to summarize patient data. The number of patients to be enrolled was dependent upon the observed safety and pharmacokinetic profile during dose escalations. The safety- and efficacy-evaluable population included patients who received at least one dose of the study drug. Safety was assessed through summaries of DLTs, AEs, changes in select laboratory test results, vital signs, ECGs, and changes in endometrial thickness. Objective response (with confirmation) and clinical benefit rates (CBR) were derived per RECIST v1.1 and summarized by dose level and cohort. […]
polyps, endometrial cancer, endometrial hyperplasia, and other significant disorders); any […]
disease or chronic diarrhea, short bowel syndrome, or upper gastrointestinal surgery; known human immunodeficiency virus (HIV) infection; known clinically significant history of liver disease; major surgery within 4 weeks prior to enrollment; or radiation therapy within 2 weeks […]
There were phase-specific exclusion criteria as well. In phase Ib, cohort C1 excluded patients with a history of venous thromboembolic event requiring therapeutic anticoagulation or vaginal bleeding within 2 months prior to enrollment. In phase IIa, cohorts A1 and A2 excluded patients with >1 chemotherapy in the advanced/metastatic disease setting. In phase IIa, cohort B1 excluded patients with >1 prior AI in the advanced/metastatic disease setting or prior […]
In phase IIa, cohort B2 excluded patients with >1 prior AI or >1 prior chemotherapy in the advanced/metastatic disease setting.
Patients in phase Ia in dose escalation received oral doses of GDC-0810 during 28-day cycles given once daily (QD) or twice-daily (BID), with fasting and without fasting, and with a single dose given on day −7 leading into cycle 1. The starting dose in the first cohort was 100 mg per day based on preclinical studies. Dose escalation to 200 mg and by 200 mg increments in successive cohorts occurred in the absence of dose-limiting toxicities (DLTs), or conditionally in the presence of DLTs. A DLT was defined as any adverse event (AE) occurring during the DLT window deemed by the investigator or sponsor to be related to the study drug unless they were clearly related to disease progression or other cause; DLT incidences were evaluated from day […]
patients in a dose cohort experienced a DLT, 3 additional patients were assigned to that dose; dose escalation to the next level proceeded if DLTs were experienced by ≤1 patient out of 6. If ≥2 patients experienced DLTs at a given dose, a lower dose was to be declared the maximum […]
Phase Ib was a dose-escalation study of GDC-0810 starting at 400 mg QD, as […]
Phase IIa explored the recommended phase 2 dose (RP2D) from phase Ia. All patients received GDC-0810 600 mg under non-fasting conditions. Cohorts A1 and A2 enrolled patients with tumors harboring ESR1 mutations with no prior fulvestrant use in cohort A1 while prior fulvestrant use was allowed in cohort A2. Cohorts B1 and B2 enrolled patients whose disease had progressed and who may have had one or no AI therapy; there was no prior fulvestrant use in cohort B1 while prior fulvestrant use was allowed in cohort B2.
Patients in all three study phases continued treatment until unacceptable toxicity, disease

[1] = phase 1a (n=41), grade 3, cohort 200 mg
[2] = phase 1a (n=41), grade 3, cohort 300 mg, BID
[3] = phase 1a (n=41), grade 3, cohort 600 mg
[4] = phase 1a (n=41), grade 3, cohort 800 mg, non-fasting
[5] = phase 1a (n=41), grade 4, cohort 600 mg, non-fasting
[6] = phase 1a (n=41), grade 5, cohort 600 mg, non-fasting
[7] = phase IIa A1, 600 mg QD, n = 19
[8] = phase IIa A2, 600 mg QD, n = 10
[9] = phase IIa B1, 600 mg QD, n = 53
[10] = phase IIa B2, 600 mg QD, n = 19

SMILES: CC/C(=C(/c1ccc(/C=C/C(=O)O)cc1)c1ccc2[nH]ncc2c1)c1ccc(F)cc1Cl [GDC-0810]
- tolerability based on frequency of gastrointestinal AEs (800 mg daily): intolerable
- patients who reported SAEs regardless of attribution (across all 3 phases): 33 patients
- AST increased, Grades 3–5 (all 3 study phases, N = 152): 4 (3) n (%)
- AST increased, all grades (all 3 study phases, N = 152): 26 (17) n (%)
- Abdominal pain, Grades 3–5 (all 3 study phases, N = 152): 3 (2) n (%)
- Abdominal pain, all grades (all 3 study phases, N = 152): 28 (18) n (%)
- Anemia, Grades 3–5 (all 3 study phases, N = 152): 4 (3) n (%)
- Anemia, all grades (all 3 study phases, N = 152): 34 (22) n (%)
- Arthralgia, Grades 3–5 (all 3 study phases, N = 152): 0 n (%)
- Arthralgia, all grades (all 3 study phases, N = 152): 32 (21) n (%)
- Constipation, Grades 3–5 (all 3 study phases, N = 152): 1 (1) n (%)
- Constipation, all grades (all 3 study phases, N = 152): 42 (28) n (%)
- Cough, Grades 3–5 (all 3 study phases, N = 152): 1 (1) n (%)
- Cough, all grades (all 3 study phases, N = 152): 30 (20) n (%)
- Decreased appetite, Grades 3–5 (all 3 study phases, N = 152): 0 n (%)
- Decreased appetite, all grades (all 3 study phases, N = 152): 38 (25) n (%)
- Diarrhea, Grades 3–5 (all 3 study phases, N = 152): 7 (5) n (%)
- Diarrhea, all grades (all 3 study phases, N = 152): 95 (63) n (%)
- Dyspepsia, Grades 3–5 (all 3 study phases, N = 152): 1 (1) n (%)
- Dyspepsia, all grades (all 3 study phases, N = 152): 30 (20) n (%)
- Fatigue, Grades 3–5 (all 3 study phases, N = 152): 6 (4) n (%)
- Fatigue, all grades (all 3 study phases, N = 152): 77 (51) n (%)
- Flatulence, Grades 3–5 (all 3 study phases, N = 152): 0 n (%)
- Flatulence, all grades (all 3 study phases, N = 152): 29 (19) n (%)
- Nausea, Grades 3–5 (all 3 study phases, N = 152): 1 (1) n (%)
- Nausea, all grades (all 3 study phases, N = 152): 82 (54) n (%)
- Vomiting, Grades 3–5 (all 3 study phases, N = 152): 4 (3) n (%)
- Vomiting, all grades (all 3 study phases, N = 152): 47 (31) n (%)
- patients experiencing ≥ 1 AE regardless of causality (all who received the study drug): All patients
- dose-limiting toxicity (DLT) (dose escalation, 35-day DLT window, diarrhea, 800-mg QD): one and a DLT
- ER agonist effects on the lipid profiles of patients (in vivo): no clinically significant ER agonist effects
- patients who reported SAEs regardless of attribution (phase 1a): 13 n
- SAE Pneumothorax (phase 1a (n=41), grade 1, cohort 800 mg, non-fasting): 1 (2%) n (%)
- SAE Presyncope (phase 1a (n=41), grade 2, cohort 300 mg, BID): 1 (2%) n (%)
- SAE Urinary tract infection (phase 1a (n=41), grade 3, cohort 100 mg): 1 (2%) n (%)
- SAE Abdominal pain [1]: 1 (2%) n (%)
- SAE Nausea [1]: 1 (2%) n (%)
- SAE Vomiting [1]: 1 (2%) n (%)
- SAE Skin infection [2]: 1 (2%) n (%)
- SAE Venous thrombosis [2]: 1 (2%) n (%)
- SAE Anemia [3]: 1 (2%) n (%)
- SAE Ascites [3]: 1 (2%) n (%)
- SAE Adrenal insufficiency [4]: 1 (2%) n (%)
- SAE Fatigue [4]: 1 (2%) n (%)
- SAE Pulmonary embolism (phase 1a (n=41), grade 4, cohort 300 mg, BID, related to study drug): 1 (2%) n (%)
- SAE Thrombocytopenia (phase 1a (n=41), grade 4, cohort 600 mg): 1 (2%) n (%)
- SAE Cardiac arrest [5]: 1 (2%) n (%)
- SAE Hyponatremia [5]: 1 (2%) n (%)
- SAE Cardiac failure [6]: 1 (2%) n (%)
- SAE Metastases to peritoneum [6]: 1 (2%) n (%)
- SAE Blood bilirubin increased (phase 1a (n=41), grade 5, cohort 800 mg): 1 (2%) n (%)
- patients who reported SAEs regardless of attribution (phase 1b): 3 n
- patients who reported SAEs regardless of attribution (phase 2a): 17 n
- deaths (phase IIa): 3 deaths
- AST increased, Grades 3–5 [7]: 0 n (%)
- AST increased, all grades [7]: 1 (5) n (%)
- Abdominal pain, Grades 3–5 [7]: 1 (5) n (%)
- Abdominal pain, all grades [7]: 3 (16) n (%)
- Anemia, Grades 3–5 [7]: 0 n (%)
- Anemia, all grades [7]: 2 (11) n (%)
- Arthralgia, Grades 3–5 [7]: 0 n (%)
- Arthralgia, all grades [7]: 4 (21) n (%)
- Constipation, Grades 3–5 [7]: 0 n (%)
- Constipation, all grades [7]: 2 (11) n (%)
- Cough, Grades 3–5 [7]: 0 n (%)
- Cough, all grades [7]: 2 (11) n (%)
- Decreased appetite, Grades 3–5 [7]: 0 n (%)
- Decreased appetite, all grades [7]: 6 (32) n (%)
- Diarrhea, Grades 3–5 [7]: 0 n (%)
- Diarrhea, all grades [7]: 10 (53) n (%)
- Dyspepsia, Grades 3–5 [7]: 0 n (%)
- Dyspepsia, all grades [7]: 6 (31) n (%)
- Fatigue, Grades 3–5 [7]: 0 n (%)
- Fatigue, all grades [7]: 8 (42) n (%)
- Flatulence, Grades 3–5 [7]: 0 n (%)
- Flatulence, all grades [7]: 4 (21) n (%)
- Nausea, Grades 3–5 [7]: 0 n (%)
- Nausea, all grades [7]: 8 (42) n (%)
- Vomiting, Grades 3–5 [7]: 2 (11) n (%)
- Vomiting, all grades [7]: 8 (42) n (%)
- AST increased, Grades 3–5 [8]: 0 n (%)
- AST increased, all grades [8]: 2 (20) n (%)
- Abdominal pain, Grades 3–5 [8]: 0 n (%)
- Abdominal pain, all grades [8]: 0 n (%)
- Anemia, Grades 3–5 [8]: 1 (10) n (%)
- Anemia, all grades [8]: 2 (20) n (%)
- Arthralgia, Grades 3–5 [8]: 0 n (%)
- Arthralgia, all grades [8]: 0 n (%)
- Constipation, Grades 3–5 [8]: 0 n (%)
- Constipation, all grades [8]: 0 n (%)
- Cough, Grades 3–5 [8]: 0 n (%)
- Cough, all grades [8]: 1 (10) n (%)
- Decreased appetite, Grades 3–5 [8]: 0 n (%)
- Decreased appetite, all grades [8]: 3 (30) n (%)
- Diarrhea, Grades 3–5 [8]: 1 (10) n (%)
- Diarrhea, all grades [8]: 5 (50) n (%)
- Dyspepsia, Grades 3–5 [8]: 1 (10) n (%)
- Dyspepsia, all grades [8]: 2 (20) n (%)
- Fatigue, Grades 3–5 [8]: 0 n (%)
- Fatigue, all grades [8]: 2 (20) n (%)
- Flatulence, Grades 3–5 [8]: 0 n (%)
- Flatulence, all grades [8]: 0 n (%)
- Nausea, Grades 3–5 [8]: 0 n (%)
- Nausea, all grades [8]: 6 (60) n (%)
- Vomiting, Grades 3–5 [8]: 0 n (%)
- Vomiting, all grades [8]: 4 (40) n (%)
- AST increased, Grades 3–5 [9]: 2 (4) n (%)
- AST increased, all grades [9]: 4 (8) n (%)
- Abdominal pain, Grades 3–5 [9]: 1 (2) n (%)
- Abdominal pain, all grades [9]: 10 (19) n (%)
- Anemia, Grades 3–5 [9]: 1 (2) n (%)
- Anemia, all grades [9]: 6 (11) n (%)
- Arthralgia, Grades 3–5 [9]: 0 n (%)
- Arthralgia, all grades [9]: 14 (26) n (%)
- Constipation, Grades 3–5 [9]: 1 (2) n (%)
- Constipation, all grades [9]: 16 (30) n (%)
- Cough, Grades 3–5 [9]: 1 (2) n (%)
- Cough, all grades [9]: 8 (15) n (%)
- Decreased appetite, Grades 3–5 [9]: 0 n (%)
- Decreased appetite, all grades [9]: 9 (17) n (%)
- Diarrhea, Grades 3–5 [9]: 5 (9) n (%)
- Diarrhea, all grades [9]: 29 (55) n (%)
- Dyspepsia, Grades 3–5 [9]: 0 n (%)
- Dyspepsia, all grades [9]: 6 (11) n (%)
- Fatigue, Grades 3–5 [9]: 2 (4) n (%)
- Fatigue, all grades [9]: 27 (51) n (%)
- Flatulence, Grades 3–5 [9]: 0 n (%)
- Flatulence, all grades [9]: 13 (25) n (%)
- Nausea, Grades 3–5 [9]: 0 n (%)
- Nausea, all grades [9]: 24 (45) n (%)
- Vomiting, Grades 3–5 [9]: 1 (2) n (%)
- Vomiting, all grades [9]: 14 (26) n (%)
- AST increased, Grades 3–5 [10]: 0 n (%)
- AST increased, all grades [10]: 1 (5) n (%)
- Abdominal pain, Grades 3–5 [10]: 0 n (%)
- Abdominal pain, all grades [10]: 1 (5) n (%)
- Anemia, Grades 3–5 [10]: 1 (5) n (%)
- Anemia, all grades [10]: 4 (21) n (%)
- Arthralgia, Grades 3–5 [10]: 0 n (%)
- Arthralgia, all grades [10]: 0 n (%)
